The values that follow come from patent publication US8809321B2, “Diaryl ether linked pyrrolo [2,1-c][1,4] benzodiazepine hybrids and process for the preparation thereof” (Council of Scientific and Industrial Research, priority 2011, dated 2014).

Usually GI50 stands for the concentration giving 50% growth inhibition.

The test system of assay [1] is duplex-form calf thymus DNA (CT-DNA). Description: Thermal denaturation studies with calf thymus DNA (DNA binding affinity). The following applies: [PBD]:[DNA] molar ratio 1:5, CT-DNA 100 μM, ligand 20 μM, sodium phosphate buffer pH 7.00; for (ΔTm ° C.) after incubation at 37° C. for 0 h: 0 h at 37° C.; for (ΔTm ° C.) after incubation at 37° C. for 18 h: 18 h at 37° C. On the procedure:
DNA Binding Affinity of Diaryl Ether Linked PBD Hybrids: Compounds have been subjected to thermal denaturation studies with duplex-form calf thymus DNA (CT-DNA) using a modification of a reported procedure (Newman, M. S. Carcinog-compr. Surv. 1976, 1, 203; ([…].; Loy, M.; Hoffman, Carcinog-compr. […] The DNA-PBD solutions have been incubated at 37° C. for 0 and 18 h prior to analysis. […] DNA helix→coil transition temperatures (Tm) have been obtained from the maxima in the d(A260)/dT derivative plots. […] The DNA binding activity for these novel C8-linked diaryl ether PBD hybrids has been examined by thermal denaturation studies using calf thymus (CT) DNA. […] The data for the compounds are included in Table 1 for comparison.

For assay [2], the system named is ZR-751 breast cancer cell line. Description: MTT assay, 48 h continuous drug exposure, ZR-751. It counts as cell-based, human. The following applies: breast cancer cell line; 48 h exposure; MTT; read-out: GI50 ZR-751. How it is done: (§1) For each compound, dose response curves for each cell line were measured at a minimum of five concentrations at 10 fold dilutions. A protocol of 48 h continuous drug exposure was used and a MTT assay was used to estimate cell viability or growth. The percent of cell growth (GI50) compared with the control was calculated.
A general note: Tetrazolium dyes change colour on reduction, which living cells bring about.

Assay [3] concerns A549 lung cancer cell line. Put plainly: MTT assay, 48 h continuous drug exposure, A549. It is filed as cell-based, human. The following applies: 48 h exposure. On the procedure:
(§2) Some of the C8-linked diaryl ether-PBD hybrids have been tested against eleven human tumour cell lines derived from seven cancer types (lung cancer, colon cancer, cervix, ovarian cancer, oral cancer, prostate cancer and breast cancer) as per Tata protocol as shown in Table 2. For each compound, dose response curves for each cell line were measured at a minimum of five concentrations at 10 fold dilutions. A protocol of 48 h continuous drug exposure was used and a MTT assay was used to estimate cell viability or growth. The percent of cell growth (GI50) compared with the control was calculated. Some of the compounds have been evaluated for their in vitro cytotoxicity in eleven cell lines from seven human cancer types. The results are expressed as GI50 determined relative to that of untreated control cells (Table-2).

For assay [4], the system named is A2780 ovarian cancer cell line. Put plainly: MTT assay, 48 h continuous drug exposure, A2780. It counts as cell-based, human. Conditions: ovarian cancer cell line; 48 h exposure; MTT; read-out: GI50 A2780. On the procedure:
as §1

For assay [5], the system named is Hop62 lung cancer cell line. Description: MTT assay, 48 h continuous drug exposure, Hop62. It counts as cell-based, human. The following applies: lung cancer cell line; 48 h exposure; MTT; read-out: GI50 Hop62. How it is done:
as §1

The subject of assay [6] is SiHa Cervix cancer cell line. Description: MTT assay, 48 h continuous drug exposure, SiHa. It is filed as cell-based, human. The following applies: Cervix cancer cell line; 48 h exposure; MTT; read-out: GI50 SiHa. On the procedure:
as §1

For assay [7], the system named is Gurav oral cancer cell line. Description: MTT assay, 48 h continuous drug exposure, Gurav. It counts as cell-based, human. Conditions: oral cancer cell line; 48 h exposure; MTT; read-out: GI50 Gurav. How it is done: as §1
The subject of assay [8] is MCF7 breast cancer cell line. Put plainly: MTT assay, 48 h continuous drug exposure, MCF7. It counts as cell-based, human. The following applies: 48 h exposure. On the procedure:
as §2

Assay [9] has as its system Colo205 colon cancer cell line. Put plainly: MTT assay, 48 h continuous drug exposure, Colo205. Conditions: 48 h exposure. It is filed as cell-based, human. How it is done: as §2
Assay [10] deals with DWD oral cancer cell line. Put plainly: MTT assay, 48 h continuous drug exposure, DWD. It is filed as cell-based, human. Conditions: oral cancer cell line; 48 h exposure; MTT; read-out: GI50 DWD. On the procedure: as §1
In assay [11] the test system is PC3 prostrate cancer cell line. Put plainly: MTT assay, 48 h continuous drug exposure, PC3. The following applies: prostrate cancer cell line; 48 h exposure; MTT; read-out: GI50 PC3. It counts as cell-based, human. On the procedure:
as §1

Take `COc1ccc(Oc2ccc(OCCCCCOc3cc4c(cc3OC)C(=O)N3CCC[C@H]3C=N4)cc2[N+](=O)[O-])cc1OC` [20c, 7-Methoxy-(8-3-[4-(3,4-dimethoxyphenoxy)-3-nitrophenoxy]pentyloxy)-(11aS)-1,2,3,11a-tetrahydro-5H-pyrrolo[2,1-c][1,4]benzodiazepin-5-one]: the “(ΔTm ° C.) after incubation at 37° C. for 0 h” value in [1] was found to be 4.9 °C. Moreover, the “(ΔTm ° C.) after incubation at 37° C. for 18 h” value in assay [1] was determined as 5.6 °C. For the same molecule, the GI50 in assay [2] amounted to 0.13 µM; in assay [3] it was 0.15 µM; in assay [4], 0.14 µM; in assay [5], 0.14 µM; in assay [6], 2.47 µM; in assay [7], 1.24 µM. Further, the GI50 in [8] was 0.14 µM; in [9], 0.13 µM; in assay [10], 0.13 µM; in [11], 0.16 µM.

With `COc1ccc(Oc2cccc(OCCCCCOc3cc4c(cc3OC)C(=O)N3CCC[C@H]3C=N4)c2[N+](=O)[O-])cc1OC` [20g, 7-Methoxy-(8-3-[3-(3,4-dimethoxyphenoxy)-2-nitrophenoxy]pentyloxy)-(11aS)-1,2,3,11a-tetrahydro-5H-pyrrolo[2,1-c][1,4]benzodiazepin-5-one], the “(ΔTm ° C.) after incubation at 37° C. for 0 h” value in assay [1] was determined as 4.5 °C. For the same molecule, the “(ΔTm ° C.) after incubation at 37° C. for 18 h” value in [1] was 6.0 °C. Besides, the GI50 came out at 0.19 µM in [2]; 0.19 µM in [3]; 2 µM in [4]; 0.19 µM in assay [5]; 2.5 µM in [6]; 0.16 µM in [7]. Also, the GI50 was 2.1 µM in [8], 0.17 µM in assay [9], 0.18 µM in [10] and 2.25 µM in [11].

Regarding `COc1cc2c(cc1OCCCCCOc1ccc(Oc3cc(OC)c(OC)c(OC)c3)c([N+](=O)[O-])c1)N=C[C@@H]1CCCN1C2=O` [21c, 7-Methoxy-(8-3-[4-(3,4,5-timethoxyphenoxy)-3-nitrophenoxy]pentyloxy)-(11aS)-1,2,3,11a-tetrahydro-5H-pyrrolo[2,1-c][1,4]benzodiazepin-5-one], the “(ΔTm ° C.) after incubation at 37° C. for 0 h” value in assay [1] worked out at 3.9 °C. For the same molecule, the “(ΔTm ° C.) after incubation at 37° C. for 18 h” value in [1] came to 5.1 °C. In addition, the GI50 is 1.6 µM in assay [2]; 2.5 µM in assay [3]; 1.56 µM in assay [4]; 3.1 µM in assay [5]; 1.26 µM in assay [6]; 2.86 µM in assay [7]. Moreover, the GI50 in assay [8] came to 1.85 µM; in [9], 2.51 µM; in [10] it was 2.13 µM; in assay [11], 1.58 µM.

As for `COc1cc2c(cc1OCCCCCOc1cccc(Oc3cc(OC)c(OC)c(OC)c3)c1[N+](=O)[O-])N=C[C@@H]1CCCN1C2=O` [21g, 7-Methoxy-(8-3-[3-(3,4,5-trimethoxyphenoxy)-2-nitrophenoxy]pentyloxy)-(11aS)-1,2,3,11a-tetrahydro-5H-pyrrolo[2,1-c][1,4]benzodiazepin-5-one], in assay [1], the “(ΔTm ° C.) after incubation at 37° C. for 0 h” value turned out to be 4.9 °C. In addition, the “(ΔTm ° C.) after incubation at 37° C. for 18 h” value in assay [1] is 6.2 °C. The GI50 in assay [2] came out at 0.18 µM; in assay [3], 2.02 µM; in assay [4], 2.1 µM; in [5] it was 2.13 µM; in [6], 2.21 µM; in [7] it was 0.16 µM. The GI50 in assay [8] turned out to be 2.3 µM; in assay [9], 0.17 µM; in [10], 0.17 µM; in assay [11], 0.19 µM.

With `COc1ccc(Oc2ccc(C(=O)N3CCN(CCCCCOc4cc5c(cc4OC)C(=O)N4CCC[C@H]4C=N5)CC3)cc2N)cc1` [22c], in [1], the “(ΔTm ° C.) after incubation at 37° C. for 0 h” value is 3.1 °C. The “(ΔTm ° C.) after incubation at 37° C. for 18 h” value in assay [1] turned out to be 4.2 °C. Also, the GI50 turned out to be 0.19 µM in assay [2]; 0.18 µM in assay [3]; 0.19 µM in [4]; 2.3 µM in [5]; 3.25 µM in assay [6]; 0.16 µM in assay [7]. In addition, the GI50 was 0.17 µM in [8], 0.17 µM in [9], 0.18 µM in assay [10] and 0.19 µM in [11].
